Values after ≈ are worked out from the molar mass of the structure shown. Where two headings read alike, the source gives them in different places.
Tests used:
[1] = in vitro; format: cell-based; conditions: human, mt-4 cells
Experimental: (§1) A rapid, sensitive and automated assay procedure was used for the in-vitro evaluation of anti-HIV agents. An […] T4-cell line, MT-4, which was previously shown (Koyanagi et al., Int. J. Cancer, 36, 445-451, 1985) to be highly susceptible to and permissive for HIV infection, served as the target cell line. Inhibition of the HIV-induced cytopathic effect was used as the end point. The viability of both HIV- and mock-infected cells was assessed spectrophotometrically via the in-situ reduction of 3-(4,5-dimethylthiazol-2-yl)-2,5-diphenyltetrazolium bromide (MTT). The 50% cytotoxic dose (CD50 in μg/ml) was defined as the concentration of compound that reduced the absorbance of the mock-infectedcontrol sample by 50%. The percent protection achieved by the compound in HIV-infected cells was calculated by the following formula: [formula] whereby (ODT)HIV is the optical density measured with a given concentration of the test compound in HIV-infected cells; (ODC)HIV is the optical density measured for the control untreated HIV-infected cells; (ODC)MOCK is the optical density measured for the control untreated mock-infected cells; all optical density values were determined at 540 nm. The dose achieving 50% protection according to the above formula was defined as the 50% effective dose (ED50 in μg/ml). The ratio of CD50 to ED50 was defined as the selectivity index (SI).

[2] = test system: HIV-1; assay: in-vitro anti-HIV assay: inhibition of the HIV-induced cytopathic effect in HIV-infected MT-4 cells (MTT); format: cell-based, Human Immunodeficiency Virus; conditions: for SI (selectivity index): ratio of CD50 to ED50
Experimental: as §1

[3] = Human immunodeficiency virus 1, MT4, dose achieving 50% protection in HIV-infected MT-4 cells, MTT, 540 nm, read-out: ED50 (50% effective dose)

Row | SMILES | CC50 [1] | EC50 [2, 3] | SI (selectivity index) [2] | EC50 ([2]; Human immunodeficiency virus 1, MT4, read-out: ED50 (50% effective dose))
1 | CC(=O)c1ccccc1NC(c1c(Cl)cccc1Cl)C1CC1 (racemic) [Compound 14, (±)-1-[2-[[cyclopropyl-(2,6-dichlorophenyl)methyl]amino]phenyl]ethanone] | 4.1 µg/mL (≈ 12.3 µM) | 0.15 µg/mL (≈ 0.449 µM) | 27 | 
2 | NC(=O)C(Nc1cccc2c1C(=O)CO2)c1c(Cl)cccc1Cl (racemic) [Compound 9, (±)-2,6-dichloro-α-[(2,3-dihydro-3-oxo-4-benzofuranyl)amino]benzeneacetamide] | 169 µg/mL (≈ 480 µM) | 0.12 µg/mL (≈ 0.342 µM) | 1405 | 
3 | CC(Nc1ccccc1[N+](=O)[O-])c1c(Cl)cccc1Cl (stereo not drawn) [Compound 13, 2,6-dichloro-α-methyl-N-(2-nitrophenyl)benzenemethanamine] | 0.13 µg/mL (≈ 0.418 µM) | 0.021 µg/mL (≈ 0.0675 µM) | 6 | 
4 | CCC(Nc1ccccc1C(C)=O)c1c(Cl)cccc1Cl (stereo not drawn) [Compound 11, 1-[2-[[1-(2,6-dichlorophenyl)propyl]amino]phenyl]ethanone] | 6.9 µg/mL (≈ 21.4 µM) | 0.52 µg/mL (≈ 1.61 µM) | 13 | 
5 | NC(=O)C(Nc1cccc2ccc[n+]([O-])c12)c1c(Cl)cccc1Cl (stereo not drawn) [Compound 7] | 53 µg/mL (≈ 146 µM) |  | 3255 | 0.047 µg/mL (≈ 0.13 µM)
6 | Cc1cc2c(c(NC(C(N)=O)c3c(Cl)cccc3Cl)c1)C(=O)CC2 (racemic) [Compound 1, (±)-2,6-dichloro-α-[(2,3-dihydro-6-methyl-3-oxo-1H-inden-4-yl)amino]benzene-acetamide] | 207 µg/mL (≈ 570 µM) | 0.0038 µg/mL (≈ 0.0105 µM) | 54560 | 
7 | CC(=O)c1ccccc1NC(C)c1c(Cl)cccc1Cl (racemic) [Compound 10, (±)-1-[2-[[1-(2,6-dichlorophenyl)ethyl]amino]phenyl]ethanone] | 5 µg/mL (≈ 16.2 µM) | 0.022 µg/mL (≈ 0.0714 µM) | 227 | 
8 | CC(=O)c1cc2c(cc1NC(C(N)=O)c1c(Cl)cccc1Cl)CCC2 (stereo not drawn) [Compound 5] | 10 µg/mL (≈ 26.5 µM) | 0.2 µg/mL (≈ 0.53 µM) | 50 | 
9 | O=[N+]([O-])c1ccccc1NC(CO)c1c(Cl)cccc1Cl (racemic) [Compound 12, (±)-2,6-dichloro-β-(2-nitrophenyl)amino]benzeneethanol] | 4.3 µg/mL (≈ 13.1 µM) | 0.18 µg/mL (≈ 0.55 µM) | 25 | 
10 | NC(=O)C(Nc1cc(Cl)cc2c1OCC2)c1c(Cl)cccc1Cl (stereo not drawn) [Compound 6] | 0.87 µg/mL (≈ 2.34 µM) | 0.079 µg/mL (≈ 0.213 µM) | 11 | 

Reference: patent publication US5407961A, “α-substituted benzenemethanamine derivatives and pharmaceutical use” (Janssen Pharmaceutica N.V., priority 1991, dated 1995)
